Laboratory results reported in ChEMBL document CHEMBL1150213, “Protein-tyrosine kinase inhibition: mechanism-based discovery of antitumor agents” (J Nat Prod, 1992).
≈ marks a conversion by molar mass, not a printed value.

What was measured:
CAKI-1 = assay: Cytotoxicity against human Caki1 cells; type: functional
HCT-116 = assay: Cytotoxicity against human HCT116 cells; type: functional
[1] = Cytotoxicity against human RXF631 cells; type: functional
UACC-257 = assay: Cytotoxicity against human UACC257 cells; type: functional
SK-OV-3 = assay: Cytotoxicity against human SKOV3 cells; type: functional
XF498 = assay: Cytotoxicity against human XF498 cells; type: functional
Malme-3M = assay: Cytotoxicity against human MALME-3M cells; type: functional
DLD-1 = assay: Cytotoxicity against human DLD1 cells; type: functional
SNB-78 = assay: Cytotoxicity against human SNB78 cells; type: functional
A498 = assay: Cytotoxicity against human A498 cells; type: functional
SF-295 = assay: Cytotoxicity against human SF295 cells; type: functional
HT-29 = assay: Cytotoxicity against human HT-29 cells; type: functional
OVCAR-4 = assay: Cytotoxicity against human OVCAR4 cells; type: functional
M14 = assay: Cytotoxicity against human M14 cells; type: functional
[2] = Cytotoxicity against human LXFL 529L cells; type: functional
SW-620 = assay: Cytotoxicity against human SW620 cells; type: functional
SN12C = assay: Cytotoxicity against human SN12C cells; type: functional
HL-60(TB) = assay: Cytotoxicity against human HL-60(TB) cells; type: functional, cell-based
TK-10 = assay: Cytotoxicity against human TK10 cells; type: functional
LOX IMVI = assay: Cytotoxicity against human LOXIMVI cells; type: functional
HOP-18 = assay: Cytotoxicity against human HOP18 cells; type: functional
SK-MEL-5 = assay: Cytotoxicity against human SK-MEL-5 cells; type: functional
NCI-H322M = assay: Cytotoxicity against human NCI-H322M cells; type: functional
SNB-19 = assay: Cytotoxicity against human SNB19 cells; type: functional
NCI-H226 = assay: Cytotoxicity against human NCI-H226 cells; type: functional
NCI-H23 = assay: cells; conditions: Homo sapiens
Description: Cytotoxicity against human NCI-H23 cells

A549 = assay: Cytotoxicity against human A549 cells; type: functional
NCI-H522 = assay: Cytotoxicity against human NCI-H522 cells; type: functional
HCC 2998 = assay: Cytotoxicity against human HCC2998 cells; type: functional
U-251 = assay: Cytotoxicity against human U251 cells; type: functional
SK-MEL-28 = assay: Cytotoxicity against human SK-MEL-28 cells; type: functional
DMS-114 = assay: Cytotoxicity against human DMS114 cells; type: functional
OVCAR-5 = assay: Cytotoxicity against human OVCAR5 cells; type: functional
KM-20L2 = assay: Cytotoxicity against human KM20L2 cells; type: functional
[3] = Cytotoxicity against human 786-O cells; type: functional
KM12 = assay: Cytotoxicity against human KM12 cells; type: functional
HOP-62 = assay: Cytotoxicity against human HOP62 cells; type: functional
HOP-92 = assay: Cytotoxicity against human HOP92 cells; type: functional
HCT-15 = assay: Cytotoxicity against human HCT15 cells; type: functional
SK-MEL-2 = assay: Cytotoxicity against human SK-MEL-2 cells; type: functional
NCI-H460 = assay: Cytotoxicity against human NCI-H460 cells; type: functional
CCRF-CEM = assay: Cytotoxicity against human CCRF-CEM cells; type: functional, cell-based
COLO 205 = assay: Cytotoxicity against human COLO205 cells; type: functional
SR = assay: Cytotoxicity against human SR cells; type: functional, cell-based
MOLT-4 = assay: Cytotoxicity against human MOLT4 cells; type: functional, cell-based
SNB-75 = assay: Cytotoxicity against human SNB75 cells; type: functional
RXF 393 = assay: Cytotoxicity against human RXF393 cells; type: functional
DMS-273 = assay: Cytotoxicity against human DMS273 cells; type: functional
[4] = biological target: Tyrosine-protein kinase Lck (Homo sapiens, UniProt P06239)
Sequence of Tyrosine-protein kinase Lck (P06239 whole entry): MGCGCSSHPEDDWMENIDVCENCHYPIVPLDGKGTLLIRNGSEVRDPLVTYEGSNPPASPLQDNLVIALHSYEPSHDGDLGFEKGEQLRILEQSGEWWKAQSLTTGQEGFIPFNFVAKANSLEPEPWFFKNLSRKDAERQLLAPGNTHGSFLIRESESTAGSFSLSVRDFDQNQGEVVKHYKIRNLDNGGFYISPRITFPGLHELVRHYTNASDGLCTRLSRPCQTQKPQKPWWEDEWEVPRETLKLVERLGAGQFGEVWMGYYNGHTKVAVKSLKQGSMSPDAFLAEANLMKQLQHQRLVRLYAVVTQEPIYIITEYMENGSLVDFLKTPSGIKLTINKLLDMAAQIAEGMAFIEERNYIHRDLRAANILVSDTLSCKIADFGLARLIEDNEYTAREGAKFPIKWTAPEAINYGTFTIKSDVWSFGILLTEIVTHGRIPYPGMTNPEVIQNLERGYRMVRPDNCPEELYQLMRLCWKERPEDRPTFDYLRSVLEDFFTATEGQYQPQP

ACHN = assay: Cytotoxicity against human ACHN cells; type: functional
RPMI-8226 = assay: Cytotoxicity against human RPMI8226 cells; type: functional, cell-based
SF-268 = assay: Cytotoxicity against human SF268 cells; type: functional
[5] = biological target: Epidermal growth factor receptor (Homo sapiens, UniProt P00533)
Sequence of Epidermal growth factor receptor (P00533 whole entry): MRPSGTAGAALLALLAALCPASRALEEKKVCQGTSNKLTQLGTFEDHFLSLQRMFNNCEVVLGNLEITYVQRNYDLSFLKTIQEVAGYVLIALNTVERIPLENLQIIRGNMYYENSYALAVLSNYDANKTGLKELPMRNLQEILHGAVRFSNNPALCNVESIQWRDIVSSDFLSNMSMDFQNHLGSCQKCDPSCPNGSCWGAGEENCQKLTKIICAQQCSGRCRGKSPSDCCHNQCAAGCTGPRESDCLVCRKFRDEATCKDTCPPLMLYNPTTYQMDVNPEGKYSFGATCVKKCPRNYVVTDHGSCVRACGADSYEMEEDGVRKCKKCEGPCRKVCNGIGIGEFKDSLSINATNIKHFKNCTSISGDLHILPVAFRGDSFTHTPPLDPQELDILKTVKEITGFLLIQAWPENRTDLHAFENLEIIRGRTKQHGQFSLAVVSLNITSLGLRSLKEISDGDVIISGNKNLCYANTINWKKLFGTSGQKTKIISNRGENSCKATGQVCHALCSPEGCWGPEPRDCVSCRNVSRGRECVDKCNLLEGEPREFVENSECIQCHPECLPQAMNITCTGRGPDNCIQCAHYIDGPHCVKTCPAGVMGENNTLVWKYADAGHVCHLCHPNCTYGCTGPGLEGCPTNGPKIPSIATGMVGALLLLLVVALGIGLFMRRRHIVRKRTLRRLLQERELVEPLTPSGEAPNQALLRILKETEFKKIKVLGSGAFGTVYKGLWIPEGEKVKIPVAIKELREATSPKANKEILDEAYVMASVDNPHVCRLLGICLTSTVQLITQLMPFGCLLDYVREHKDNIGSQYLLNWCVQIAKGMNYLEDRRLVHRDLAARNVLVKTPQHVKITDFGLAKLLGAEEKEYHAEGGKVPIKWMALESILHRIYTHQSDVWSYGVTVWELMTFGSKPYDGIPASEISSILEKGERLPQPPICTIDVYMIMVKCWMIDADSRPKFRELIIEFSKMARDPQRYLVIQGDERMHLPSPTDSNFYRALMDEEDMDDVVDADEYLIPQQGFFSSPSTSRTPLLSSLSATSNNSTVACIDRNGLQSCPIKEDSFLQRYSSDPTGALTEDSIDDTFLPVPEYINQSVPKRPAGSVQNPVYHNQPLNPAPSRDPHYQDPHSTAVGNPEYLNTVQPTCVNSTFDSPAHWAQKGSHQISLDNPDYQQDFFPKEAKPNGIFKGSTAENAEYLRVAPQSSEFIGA

L1210 [6] = assay: Cytotoxicity against mouse L1210 cells; type: functional
A-431 = assay: Cytotoxicity against human A431 cells; type: functional
L1210 [7] = assay: Iv vivo cytotoxicity against mouse L1210 cells relative to control in presence of foroxymithine; type: functional
[8] = Cytotoxicity against Rous sarcoma virus-infected rat kidney cells; type: functional
[9] = biological target: Proto-oncogene tyrosine-protein kinase Src (Homo sapiens, UniProt P12931); assay: Inhibition of p60 src
Sequence of Proto-oncogene tyrosine-protein kinase Src (P12931 2-536 limits assumed): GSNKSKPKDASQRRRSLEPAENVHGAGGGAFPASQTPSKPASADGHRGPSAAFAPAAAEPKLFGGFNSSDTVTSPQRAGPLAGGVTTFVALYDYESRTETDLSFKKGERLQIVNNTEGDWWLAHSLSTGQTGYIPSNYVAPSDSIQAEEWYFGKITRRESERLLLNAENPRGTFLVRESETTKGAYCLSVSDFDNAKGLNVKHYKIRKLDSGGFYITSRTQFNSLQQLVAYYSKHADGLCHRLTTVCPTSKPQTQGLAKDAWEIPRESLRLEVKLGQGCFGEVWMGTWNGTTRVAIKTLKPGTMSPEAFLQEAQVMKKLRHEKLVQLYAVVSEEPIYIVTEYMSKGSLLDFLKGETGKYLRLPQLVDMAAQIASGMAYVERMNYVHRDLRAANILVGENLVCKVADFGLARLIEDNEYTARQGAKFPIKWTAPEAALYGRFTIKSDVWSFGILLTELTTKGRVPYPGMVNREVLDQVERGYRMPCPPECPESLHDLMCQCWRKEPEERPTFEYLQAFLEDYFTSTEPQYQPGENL

K562 = assay: Cytotoxicity against human K562 cells; type: functional, cell-based
[10] = biological target: Tyrosine-protein kinase transforming protein Fps (Fujinami sarcoma virus, UniProt P00530); assay: Inhibition of Fujinami sarcoma virus pp130fps
Sequence of Tyrosine-protein kinase transforming protein Fps (P00530 whole entry): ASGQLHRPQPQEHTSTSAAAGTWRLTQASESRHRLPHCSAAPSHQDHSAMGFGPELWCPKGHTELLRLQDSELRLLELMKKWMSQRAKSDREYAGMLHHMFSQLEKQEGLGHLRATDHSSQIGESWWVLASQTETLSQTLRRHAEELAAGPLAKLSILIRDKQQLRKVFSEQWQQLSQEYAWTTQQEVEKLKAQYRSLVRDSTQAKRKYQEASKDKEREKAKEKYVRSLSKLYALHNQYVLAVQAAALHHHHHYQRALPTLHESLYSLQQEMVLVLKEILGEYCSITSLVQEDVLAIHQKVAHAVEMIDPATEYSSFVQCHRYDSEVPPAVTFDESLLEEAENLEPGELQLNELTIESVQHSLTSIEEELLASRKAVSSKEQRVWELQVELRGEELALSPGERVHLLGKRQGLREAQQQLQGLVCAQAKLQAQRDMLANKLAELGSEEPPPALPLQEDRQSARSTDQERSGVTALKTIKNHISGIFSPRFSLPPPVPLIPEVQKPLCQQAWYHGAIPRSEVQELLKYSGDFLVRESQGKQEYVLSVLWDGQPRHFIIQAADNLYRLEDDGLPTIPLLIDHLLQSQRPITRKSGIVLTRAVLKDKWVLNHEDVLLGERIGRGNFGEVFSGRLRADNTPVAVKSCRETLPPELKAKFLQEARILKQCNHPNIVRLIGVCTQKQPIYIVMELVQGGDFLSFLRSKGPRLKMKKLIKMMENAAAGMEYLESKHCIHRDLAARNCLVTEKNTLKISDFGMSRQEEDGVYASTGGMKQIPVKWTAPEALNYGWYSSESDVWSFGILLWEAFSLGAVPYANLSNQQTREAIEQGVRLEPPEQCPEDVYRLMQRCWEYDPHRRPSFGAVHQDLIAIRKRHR

Insulin receptor = Insulin receptor (Homo sapiens, UniProt P06213); assay: Inhibition of insulin receptor
Sequence of Insulin receptor (P06213 28-758 limits assumed): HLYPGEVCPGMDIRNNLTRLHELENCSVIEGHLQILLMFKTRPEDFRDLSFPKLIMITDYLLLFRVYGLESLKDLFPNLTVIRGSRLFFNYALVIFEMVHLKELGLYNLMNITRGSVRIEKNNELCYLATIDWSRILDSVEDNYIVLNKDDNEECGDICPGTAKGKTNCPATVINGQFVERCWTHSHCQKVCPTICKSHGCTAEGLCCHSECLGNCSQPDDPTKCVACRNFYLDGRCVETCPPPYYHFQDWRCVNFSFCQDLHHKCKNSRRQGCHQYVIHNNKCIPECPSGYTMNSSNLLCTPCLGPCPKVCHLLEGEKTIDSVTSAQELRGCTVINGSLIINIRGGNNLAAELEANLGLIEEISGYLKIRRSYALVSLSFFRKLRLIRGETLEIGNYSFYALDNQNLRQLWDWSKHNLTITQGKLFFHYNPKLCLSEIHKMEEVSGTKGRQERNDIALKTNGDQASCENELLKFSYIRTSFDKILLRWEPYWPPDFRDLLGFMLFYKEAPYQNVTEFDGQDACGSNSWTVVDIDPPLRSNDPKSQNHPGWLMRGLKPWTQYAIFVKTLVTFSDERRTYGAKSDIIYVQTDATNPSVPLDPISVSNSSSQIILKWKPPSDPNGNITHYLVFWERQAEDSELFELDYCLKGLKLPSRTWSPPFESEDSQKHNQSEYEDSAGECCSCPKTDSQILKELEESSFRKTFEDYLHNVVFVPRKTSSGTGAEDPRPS
Sequence of Insulin receptor (P06213 763-1382 limits assumed): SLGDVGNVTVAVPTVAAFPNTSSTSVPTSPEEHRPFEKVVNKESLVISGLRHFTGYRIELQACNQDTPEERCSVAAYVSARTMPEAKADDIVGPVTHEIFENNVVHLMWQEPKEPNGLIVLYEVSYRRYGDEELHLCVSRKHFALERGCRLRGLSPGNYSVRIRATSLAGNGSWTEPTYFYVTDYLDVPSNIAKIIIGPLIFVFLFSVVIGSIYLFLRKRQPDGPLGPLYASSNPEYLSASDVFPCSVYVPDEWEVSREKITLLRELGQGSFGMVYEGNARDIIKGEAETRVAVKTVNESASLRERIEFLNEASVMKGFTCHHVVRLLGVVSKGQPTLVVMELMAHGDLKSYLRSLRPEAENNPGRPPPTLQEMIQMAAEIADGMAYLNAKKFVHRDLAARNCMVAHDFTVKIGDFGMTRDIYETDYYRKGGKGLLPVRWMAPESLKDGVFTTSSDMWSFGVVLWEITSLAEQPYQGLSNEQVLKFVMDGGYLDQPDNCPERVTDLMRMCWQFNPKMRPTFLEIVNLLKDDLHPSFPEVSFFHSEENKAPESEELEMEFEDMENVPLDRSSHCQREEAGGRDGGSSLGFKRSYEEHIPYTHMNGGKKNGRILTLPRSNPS

NRK = assay: Growth inhibition of Rous sarcoma virus-transformed rat NRK cells; type: cell-based
[11] = read-out: Log10GI50 (converted)
[12] = read-out: Log10LC50 (converted)

## Cc1cc(O)c2c(c1)C(=O)c1cc(O)cc(O)c1C2=O [EMODIN]
CAKI-1; [11]
  GI50: 45.7 µM
CAKI-1; [12]
  CC50: > 100 µM
HCT-116; [11]
  GI50: 36.3 µM
HCT-116; [12]
  CC50: > 100 µM
[1]; RXF 631, read-out: Log10GI50 (converted)
  GI50: 22.4 µM
[1]; RXF 631, read-out: Log10LC50 (converted)
  CC50: > 100 µM
UACC-257; [11]
  GI50: 28.2 µM
UACC-257; [12]
  CC50: > 100 µM
SK-OV-3; [11]
  GI50: 23.4 µM
SK-OV-3; [12]
  CC50: > 100 µM
XF498; [11]
  GI50: 26.3 µM
XF498; [12]
  CC50: > 100 µM
Malme-3M; [11]
  GI50: 11.7 µM
Malme-3M; [12]
  CC50: > 100 µM
DLD-1; [11]
  GI50: 23.4 µM
DLD-1; [12]
  CC50: > 100 µM
SNB-78; [11]
  GI50: 49 µM
SNB-78; [12]
  CC50: 100 µM
A498; [11]
  GI50: 16.6 µM
A498; [12]
  CC50: > 100 µM
SF-295; [11]
  GI50: 28.2 µM
SF-295; [12]
  CC50: > 100 µM
HT-29; [11]
  GI50: 31.6 µM
HT-29; [12]
  CC50: > 100 µM
OVCAR-4; [11]
  GI50: 30.2 µM
OVCAR-4; [12]
  CC50: > 100 µM
M14; [11]
  GI50: 25.1 µM
M14; [12]
  CC50: > 100 µM
[2]; [11]
  GI50: 24.5 µM
[2]; [12]
  CC50: > 100 µM
SW-620; [11]
  GI50: 23.4 µM
SW-620; [12]
  CC50: > 100 µM
SN12C; [11]
  GI50: 67.6 µM
SN12C; [12]
  CC50: > 100 µM
HL-60(TB); [11]
  GI50: 26.9 µM
HL-60(TB); [12]
  CC50: > 100 µM
TK-10; [11]
  GI50: 23.4 µM
TK-10; [12]
  CC50: 97.7 µM
LOX IMVI; [11]
  GI50: 17 µM
LOX IMVI; [12]
  CC50: > 100 µM
HOP-18; [11]
  GI50: 3.98 µM
HOP-18; [12]
  CC50: > 100 µM
SK-MEL-5; [11]
  GI50: 2.63 µM
SK-MEL-5; [12]
  CC50: 51.3 µM
NCI-H322M; [11]
  GI50: 35.5 µM
NCI-H322M; [12]
  CC50: > 100 µM
SNB-19; [11]
  GI50: 30.2 µM
SNB-19; [12]
  CC50: > 100 µM
NCI-H226; [11]
  GI50: 33.1 µM
NCI-H226; [12]
  CC50: > 100 µM
NCI-H23; NCI-H23, read-out: Log10GI50 (converted)
  GI50: 14.5 µM
NCI-H23; NCI-H23, read-out: Log10LC50 (converted)
  CC50: > 100 µM
A549; [11]
  GI50: 26.9 µM
A549; [12]
  CC50: > 100 µM
NCI-H522; [11]
  GI50: 14.5 µM
NCI-H522; [12]
  CC50: > 100 µM
HCC 2998; [11]
  GI50: 32.4 µM
HCC 2998; [12]
  CC50: > 100 µM
U-251; [11]
  GI50: 27.5 µM
U-251; [12]
  CC50: > 100 µM
SK-MEL-28; [11]
  GI50: 36.3 µM
SK-MEL-28; [12]
  CC50: > 100 µM
DMS-114; [11]
  GI50: 40.7 µM
DMS-114; [12]
  CC50: > 100 µM
OVCAR-5; [11]
  GI50: 38 µM
OVCAR-5; [12]
  CC50: > 100 µM
KM-20L2; [11]
  GI50: 40.7 µM
KM-20L2; [12]
  CC50: > 100 µM
[3]; 786-0, read-out: Log10GI50 (converted)
  GI50: 17.4 µM
[3]; 786-0, read-out: Log10LC50 (converted)
  CC50: > 100 µM
KM12; [11]
  GI50: 26.3 µM
KM12; [12]
  CC50: > 100 µM
HOP-62; [11]
  GI50: 8.13 µM
HOP-62; [12]
  CC50: > 100 µM
HOP-92; [11]
  GI50: 11.5 µM
HOP-92; [12]
  CC50: > 100 µM
HCT-15; [11]
  GI50: 26.9 µM
HCT-15; [12]
  CC50: > 100 µM
SK-MEL-2; [11]
  GI50: 20.4 µM
SK-MEL-2; [12]
  CC50: > 100 µM
NCI-H460; [11]
  GI50: 20 µM
NCI-H460; [12]
  CC50: > 100 µM
CCRF-CEM; [11]
  GI50: 38 µM
CCRF-CEM; [12]
  CC50: > 100 µM
COLO 205; [11]
  GI50: 17.8 µM
COLO 205; [12]
  CC50: 100 µM
SR; [11]
  GI50: 23.4 µM
SR; [12]
  CC50: > 100 µM
MOLT-4; [11]
  GI50: 32.4 µM
MOLT-4; [12]
  CC50: > 100 µM
SNB-75; [11]
  GI50: 25.7 µM
SNB-75; [12]
  CC50: > 100 µM
RXF 393; [11]
  GI50: 38.9 µM
RXF 393; [12]
  CC50: > 100 µM
DMS-273; [11]
  GI50: 20 µM
DMS-273; [12]
  CC50: > 100 µM
[4]
  IC50: 18.5 µM
ACHN; [11]
  GI50: 19.1 µM
ACHN; [12]
  CC50: > 100 µM
RPMI-8226; [11]
  GI50: 24.5 µM
RPMI-8226; [12]
  CC50: > 100 µM
SF-268; [11]
  GI50: 25.7 µM
SF-268; [12]
  CC50: > 100 µM

## O=CN/C=C/c1cc(O)ccc1O [ERBSTATIN]
[5]
  IC50: 3.07 µM
L1210 [6]
  GI50: 3 µg/mL (≈ 16.7 µM)
A-431
  GI50: 3 µg/mL (≈ 16.7 µM)
L1210 [7]
  T/C: 155%
[8]
  GI50: 3 µg/mL (≈ 16.7 µM)

## CC(C)[C@H](NC(=O)[C@H](CCCN=C(N)N)NC(=O)[C@@H](N)CC(=O)O)C(=O)N[C@@H](Cc1ccc(O)cc1)C(=O)N[C@H](C(=O)N[C@@H](Cc1cnc[nH]1)C(=O)N1CCC[C@H]1C(=O)N[C@@H](Cc1ccccc1)C(=O)O)C(C)C [[Val5] - ANGIOTENSIN II]
[9]
  Ki: 700 µM

## CO[C@H]1[C@@H](OC)C[C@H](C)[C@@H](OC)C2=CC(=O)C=C(NC(=O)/C(C)=C/C=C/[C@H](OC)[C@@H](OC(N)=O)/C(C)=C/[C@@H]1C)C2=O [HERBIMYCIN]
HL-60(TB)
  IC50: > 1 µM
K562
  IC50: 0.095 µM
CCRF-CEM
  IC50: > 1 µM
SR
  IC50: > 1 µM
MOLT-4
  IC50: > 1 µM
RPMI-8226
  IC50: > 1 µM

## O=c1c(O)c(-c2cc(O)c(O)c(O)c2)oc2cc(O)cc(O)c12 [MYRICETIN]
[10]
  Ki: 1.8 µM
Insulin receptor
  Ki: 2.6 µM

## O=c1c(-c2ccc(O)c(O)c2)coc2cc(O)cc(O)c12 [OROBOL]
NRK
  IC50: 4 µg/mL (≈ 14 µM)
